According to patent US20150315188A1, “COMPOUNDS AND METHODS FOR TREATMENT OF HYPERTENSION” (MEDIVATION TECHNOLOGIES, INC., priority 2012, published 2015):

Tests used:
Design in all cases: purchased Milipore (Millipore)
[1] = target: T1, Human adrenergic α2A receptor (Homo sapiens, UniProt P08913); assay: Radioligand binding, adrenergic α2A (Protocol Group B); details: Protocol Group B; for Percentage inhibition of ligand binding, Adrenergic α2A (0.1 μM): 0.1 μM compound
T1 sequence (P08913 1-465): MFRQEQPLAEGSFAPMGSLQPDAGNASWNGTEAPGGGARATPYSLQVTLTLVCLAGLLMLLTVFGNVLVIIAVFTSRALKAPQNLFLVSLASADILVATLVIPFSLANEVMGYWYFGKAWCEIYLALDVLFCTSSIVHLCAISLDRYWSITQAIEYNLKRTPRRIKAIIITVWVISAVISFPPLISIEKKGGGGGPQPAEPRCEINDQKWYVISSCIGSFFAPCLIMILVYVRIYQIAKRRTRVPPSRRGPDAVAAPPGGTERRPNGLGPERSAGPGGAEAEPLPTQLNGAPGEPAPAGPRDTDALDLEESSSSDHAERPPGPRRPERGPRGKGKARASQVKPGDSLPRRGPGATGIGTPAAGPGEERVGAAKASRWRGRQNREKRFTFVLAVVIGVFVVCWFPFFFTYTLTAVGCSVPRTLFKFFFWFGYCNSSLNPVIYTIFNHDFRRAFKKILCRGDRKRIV
Method in brief: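 Membranes from recombinant cells expressing the receptor, in 50 mM Tris-HCl pH 7.4 with 5 mM MgCl2, 1 mM CaCl2, 0.2% BSA; compounds incubated with 2 nM [^3H]MK-912 for 60 min at 25° C. Nonspecific binding defined by 10 μM rauwolscine; filtration, counting; percent inhibition of specific binding, or estimated Ki.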

[2] = target: T2, Human adrenergic α1B receptor (Homo sapiens, UniProt P35368); assay: Radioligand binding, adrenergic α1B (Protocol Group B); details: Protocol Group B; for Percentage inhibition of ligand binding, Adrenergic α1B (0.1 μM): 0.1 μM compound
T2 sequence (P35368 1-520): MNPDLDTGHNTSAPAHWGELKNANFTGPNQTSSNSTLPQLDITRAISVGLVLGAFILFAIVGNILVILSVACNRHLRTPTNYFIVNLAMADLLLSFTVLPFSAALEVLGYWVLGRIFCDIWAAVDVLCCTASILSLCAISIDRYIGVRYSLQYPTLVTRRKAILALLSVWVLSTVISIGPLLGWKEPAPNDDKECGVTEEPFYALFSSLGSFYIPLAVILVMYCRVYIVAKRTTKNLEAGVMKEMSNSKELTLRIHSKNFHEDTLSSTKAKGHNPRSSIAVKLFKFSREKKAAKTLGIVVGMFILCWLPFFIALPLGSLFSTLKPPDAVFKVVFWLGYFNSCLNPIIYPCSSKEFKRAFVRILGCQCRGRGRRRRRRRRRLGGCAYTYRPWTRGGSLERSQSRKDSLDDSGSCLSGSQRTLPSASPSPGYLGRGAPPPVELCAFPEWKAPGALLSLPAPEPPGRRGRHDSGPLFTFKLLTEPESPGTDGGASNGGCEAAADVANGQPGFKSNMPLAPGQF
Method in brief: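 Recombinant human α1B membranes incubated with test compound and 0.3 nM [3H]prazosin, 60 min at 25 °C, in 50 mM Tris-HCl pH 7.4, 10 mM MgCl2, 1 mM EDTA; nonspecific binding with 10 μM prazosin. Filter-bound radioactivity counted; values are % inhibition of specific binding or estimated Ki.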

[3] = target: T3, Human adrenergic α2B receptor (Homo sapiens, UniProt P18089); assay: Radioligand binding, adrenergic α2B (Protocol Group B); details: Protocol Group B; for Percentage inhibition of ligand binding, Adrenergic α2B (10 nM): 10 nM compound, 0.01 µM; for Percentage inhibition of ligand binding, Adrenergic α2B (30 nM): 30 nM compound, 0.03 µM; for Percentage inhibition of ligand binding, Adrenergic α2B (0.1 μM) / inhibition at 0.1 µM: 0.1 μM compound; for inhibition at 0.1 µM: read-out: Percentage inhibition of ligand binding, Adrenergic α2B (0.1 μM)
T3 sequence (P18089 1-450): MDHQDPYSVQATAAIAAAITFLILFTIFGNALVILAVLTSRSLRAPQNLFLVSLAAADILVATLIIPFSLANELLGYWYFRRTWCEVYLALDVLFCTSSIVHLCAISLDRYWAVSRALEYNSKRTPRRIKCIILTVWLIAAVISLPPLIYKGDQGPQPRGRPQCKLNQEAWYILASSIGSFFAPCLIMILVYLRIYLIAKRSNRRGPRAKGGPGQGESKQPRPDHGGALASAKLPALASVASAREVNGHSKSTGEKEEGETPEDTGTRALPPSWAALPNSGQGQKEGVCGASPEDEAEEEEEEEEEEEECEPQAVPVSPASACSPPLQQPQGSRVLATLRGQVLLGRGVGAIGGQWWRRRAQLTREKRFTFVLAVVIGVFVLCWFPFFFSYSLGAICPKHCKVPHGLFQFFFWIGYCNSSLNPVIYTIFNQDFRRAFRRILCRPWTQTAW
Method in brief: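 Recombinant human α2B receptor membranes incubated with compounds in 50 mM Tris-HCl pH 7.4, 5 mM MgCl2, 1 mM CaCl2, 0.2% BSA, 1% DMSO vehicle. Non-specific binding defined with 10 μM rauwolscine. Values are percent inhibition of specific binding or estimated Ki.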

SMILES | Percentage inhibition of ligand binding, Adrenergic α2A (0.1 μM) [1] | Percentage inhibition of ligand binding, Adrenergic α2A (0.3 μM) ([1]; 0.3 μM compound) | Percentage inhibition of ligand binding, Adrenergic α1B (0.1 μM) [2] | Percentage inhibition of ligand binding, Adrenergic α1B (0.3 μM) ([2]; 0.3 μM compound) | Percentage inhibition of ligand binding, Adrenergic α2B (10 nM) [3] | Percentage inhibition of ligand binding, Adrenergic α2B (30 nM) [3] | Percentage inhibition of ligand binding, Adrenergic α2B (0.1 μM) [3] | inhibition at 0.3 µM ([1]; 0.3 μM compound, read-out: Percentage inhibition of ligand binding, Adrenergic α2A (0.3 μM)) | inhibition at 0.1 µM [3] | inhibition at 0.3 µM ([2]; 0.3 μM compound, read-out: Percentage inhibition of ligand binding, Adrenergic α1B (0.3 μM))
Cc1cc(F)c2c(c1)c1c(n2CC(C)(O)c2cccnc2)CC2CCCN2C1 (single isomer, unassigned) [61b] | 6% | 22% | −7% | 11% | −8% | 3% | 28% |  |  | 
Cc1cc(F)c2c(c1)c1c(n2CC(C)(O)c2cccnc2)CC2CCCN2C1 (single isomer, unassigned) [61d] | −10% | −4% | 0% | 1% | 0% | 11% | 23% |  |  | 
Cc1cc(F)c2c(c1)c1c(n2CC(C)(O)c2ccncc2)CC2CCCN2C1 (single isomer, unassigned) [62a] | 14% |  | 22% | 43% | 21% | 45% |  | 30% | 72% | 
Cc1cc(F)c2c(c1)c1c(n2CC(C)(O)c2ccncc2)CC2CCCN2C1 (single isomer, unassigned) [62b] | 16% | 26% | 2% | 21% | 12% | 32% | 62% |  |  | 
Cc1cc(F)c2c(c1)c1c(n2CC(C)(O)c2ccncc2)CC2CCCN2C1 (single isomer, unassigned) [62c] | 5% | 21% | 10% | 15% | 47% | 52% | 65% |  |  | 
Cc1cc(F)c2c(c1)c1c(n2CC(C)(O)c2ccncc2)CC2CCCN2C1 (single isomer, unassigned) [62d] | 11% | 25% | 12% | 27% | 21% | 57% | 82% |  |  | 
CC(O)(Cn1c2c(c3cc(Cl)cc(F)c31)CN1CCCC1C2)c1cccnc1 (single isomer, unassigned) [63a] | 3% | 32% | 2% | 24% | 25% | 55% | 84% |  |  | 
CC(O)(Cn1c2c(c3cc(Cl)cc(F)c31)CN1CCCC1C2)c1cccnc1 (single isomer, unassigned) [63b] | 0% | 13% | −1% | 1% | −6% | −3% | 22% |  |  | 
CC(O)(Cn1c2c(c3cc(Cl)cc(F)c31)CN1CCCC1C2)c1cccnc1 (single isomer, unassigned) [63d] | −13% | −12% | −5% | −4% | −10% | 5% |  |  |  | 
CC(O)(Cn1c2c(c3cc(C(F)(F)F)ccc31)C1CCCN1CC2)c1cccnc1 (single isomer, unassigned) [64a] | 37% | 61% | 18% |  | 73% | 91% |  |  | 96% | 47%
CC(O)(Cn1c2c(c3cc(C(F)(F)F)ccc31)C1CCCN1CC2)c1cccnc1 (single isomer, unassigned) [64b] | 10% | 37% | 4% | 27% | 15% | 47% | 76% |  |  | 
